The text below walks through data of article PMC7367283, “A PIP2 substitute mediates voltage sensor-pore coupling in KCNQ activation” (Communications Biology, 2020).

The assay concerns the target T1, KV4.2 (Rattus norvegicus, UniProt Q63881).
T1 sequence (Q63881 1-630): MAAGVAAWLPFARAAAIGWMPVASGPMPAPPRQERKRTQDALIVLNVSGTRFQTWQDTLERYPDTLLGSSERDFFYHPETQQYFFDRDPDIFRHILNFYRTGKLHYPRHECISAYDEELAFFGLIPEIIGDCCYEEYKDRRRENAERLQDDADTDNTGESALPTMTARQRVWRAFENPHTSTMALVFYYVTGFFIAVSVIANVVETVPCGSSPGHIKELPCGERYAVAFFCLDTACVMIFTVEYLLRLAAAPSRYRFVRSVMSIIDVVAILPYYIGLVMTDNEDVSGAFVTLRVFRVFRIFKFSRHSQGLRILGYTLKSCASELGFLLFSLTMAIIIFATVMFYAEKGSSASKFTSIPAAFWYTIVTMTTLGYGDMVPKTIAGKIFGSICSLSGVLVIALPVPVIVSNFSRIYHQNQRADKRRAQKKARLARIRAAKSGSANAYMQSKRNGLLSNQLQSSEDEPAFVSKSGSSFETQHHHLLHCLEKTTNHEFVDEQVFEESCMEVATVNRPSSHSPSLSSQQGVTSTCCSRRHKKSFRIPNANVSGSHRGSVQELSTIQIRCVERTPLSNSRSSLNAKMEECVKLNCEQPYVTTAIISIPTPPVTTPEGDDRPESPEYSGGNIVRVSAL
Put plainly: Two-electrode voltage clamp of KV4.2 in Xenopus oocytes. It is filed as cell-based, human. As to conditions: 10 µM CP1. An excerpt:
Since CP1 has a similar effect to PIP2 in mediating VSD-pore coupling in KCNQ channels, we tested if CP1 has effects on other ion channels that are also sensitive to PIP2 or are voltage activated and share general structural features of the VSD and the pore with KCNQ. […] On the other hand, NaV1.5 and KV4.2 are voltage-gated ion channels.
Fig. 6 Effects of CP1 on other ion channels expressed in Xenopus oocytes. a Currents of Kir1.1, CaV1.2, NaV1.5, hERG, and KV4.2 before and after application of 10 µM CP1, respectively. The voltages for holding, test, and returning pulses were Kir1.1, 0 mV, −100 to +60 mV, 0; CaV1.2, −100 mV, −100 to +60, −100 mV; NaV1.5, −100, −120 to +40 mV, −120 mV; hERG, −80 mV, −90 to +60 mV, −60 mV; KV4.2, −80 mV, −100 mV to +80 mV, −40 mV; HCN4, −30 mV, −30 to −140 mV, −120 mV. b Current–voltage relations of Kir1.1 channel in the absence or presence of 10 µM CP1 (n = 7). c–g G–V relations of indicated channels with and without 10 µM CP1. The ΔV1/2 of G–V relations (mV) are CaV1.2, 3.38 ± 0.71 mV (c); NaV1.5, −2.26 ± 0.95 mV (d); hERG, 6.85 ± 1.81 mV (e); KV 4.2, −2.26 ± 2.88 mV (f); HCN4, 17.13 ± 1.59 mV (g).
Complementary DNA (cDNA) encoding human KCNQ1 (UniProtKB/Swiss‐Prot under accession no. P51787), KCNQ2 (O43526), KCNQ3 (O43525), KCNE1 (P15382), Kir1.1 (P48048), hERG (Q12809), KV4.2 (Q63881), NaV1.5 (Q14524), NaV β1 (Q07699), CaV1.2 (Q13936), CaV β1a (Q02641), CaV α2/δ1 (P54289), and HCN4 (Q9Y3Q4) were subcloned into oocyte expression vectors, respectively. Site-directed mutations of the KCNQ1 channel were all produced by overlap extension polymerase chain reaction (PCR) with high-fidelity Pfu polymerase (Stratagene, CA). The presence of the desired mutation was verified by sequencing the PCR-amplified regions. All the primer sequences used in this study are available in Supplementary Table 1. The complementary RNA (cRNA) of all these channels and mutations was transcribed in vitro with the T3, T7, or SP6 polymerase mMessage mMachine kit (Invitrogen, Thermo Fisher Scientific, MO).
The whole-oocyte ionic currents were recorded with a GeneClamp 500B amplifier (Axon Instruments, CA) or iTEV90 amplifier (HEKA, Germany) and then sampled at 1 kHz and low-pass-filtered at 2 kHz. The Patchmaster software (HEKA, Germany) was used to acquire data. The Kir1.1 current was recorded with a high K^+ bath solution containing (in mM) 96 KCl, 4 NaCl, 1 CaCl2, 2 MgCl2, and 10 HEPES, pH 7.3–7.4. The HCN4 current was recorded in ND66 solution containing (in mM) 66 NaCl, 32 KCl, 1.8 CaCl2, 1 MgCl2, and 5 HEPES, pH 7.6. All the other potassium channels were recorded in ND96 solution. The currents of CaV1.2 channel were recorded in 40 mM Ba^2+ bath solution containing (in mM) 40 Ba(OH)2, 50 TEA-OH, 2 KOH, and 5 HEPES, adjusted to pH 7.4 with methanesulfonic acid. CP1 (DISODIUM 5-BROMO-2-[9-CHLORO-3-(SULFONATOOXY) NAPHTHO [1,2-B] THIEN-2-YL]-1H-INDOL-3-YL SULFATE, Sigma-Aldrich, MO) and Chromanol 293B (Sigma-Aldrich, MO) were dissolved in bath solutions. All the chemicals were purchased from Sigma-Aldrich. To measure the I–V relations of the Kir1.1 channel, the test voltage was set from −100 to +60 mV for 1 s with 20-mV increments. The test pulses were stepped from a holding potential of 0 mV and then stepped back to 0 mV. The HCN4 currents were recorded by a test pulse between −30 and −140 mV in 10-mV step from a holding potential of −30 mV. For all the other potassium channels and CaV1.2 channel, the holding potential was −80 or −100 mV, and the test pulse was applied with 10-mV increment, which was followed with a repolarization pulse at −40 mV before returning to the holding potential. The durations of test and the repolarization pulse vary for different channels to allow the activation and deactivation of the channel to reach their steady states.
On the technique in general: In two-electrode clamp one electrode senses voltage and the other passes current.

For the compound `O=S(=O)([O-])Oc1c(-c2sc3c(ccc4cccc(Cl)c43)c2OS(=O)(=O)[O-])[nH]c2ccc(Br)cc12.[Na+].[Na+]` [CP1, DISODIUM 5-BROMO-2-[9-CHLORO-3-(SULFONATOOXY) NAPHTHO [1,2-B] THIEN-2-YL]-1H-INDOL-3-YL SULFATE], the “ΔV1/2 of G–V relations” value is listed as −2.26 ± 2.88 mV. Besides, for the setting “voltage 0 mV”, the “G/Gmax Mean (Fig. 6f)” value came out at 0.3489. Moreover, the “G/Gmax Mean (Fig. 6f)” value (voltage 10 mV) came out at 0.4229. For the same compound, the “G/Gmax Mean (Fig. 6f)” value (voltage 20 mV) is reported as 0.5032. Further, where the note is “voltage 30 mV”, the “G/Gmax Mean (Fig. 6f)” value is listed as 0.5901. The “G/Gmax Mean (Fig. 6f)” value (voltage 40 mV) is 0.6796. Besides, the “G/Gmax Mean (Fig. 6f)” value (voltage 50 mV) is 0.7731. Besides, the “G/Gmax Mean (Fig. 6f)” value (voltage 60 mV) turned out to be 0.8507. Moreover, the “G/Gmax Mean (Fig. 6f)” value (voltage 70 mV) is listed as 0.9365. For the same compound, where the note is “voltage 80 mV”, the “G/Gmax Mean (Fig. 6f)” value is reported as 1.0000. Where the note is “voltage -10 mV”, the “G/Gmax Mean (Fig. 6f)” value is reported as 0.2734. Also, under “voltage -20 mV”, the “G/Gmax Mean (Fig. 6f)” value was found to be 0.2218. Under “voltage -30 mV”, the “G/Gmax Mean (Fig. 6f)” value was determined as 0.1858. Further, the “G/Gmax Mean (Fig. 6f)” value (voltage -40 mV) worked out at 0.1969. Further, for the setting “voltage -50 mV”, the “G/Gmax Mean (Fig. 6f)” value is on record as 0.2134.
